Patent publication US20060154243A1 (priority 2003, published 2006)

Columns and labels:
Assay type in all cases: binding, human
[1] = tested on: serum 1b (individual 1, late serum)
serum SARS-green = tested on: serum SARS-green
serum London = tested on: serum London
serum 2 (individual 2) = tested on: serum 2 (individual 2)
[2] = tested on: control serum LUMC (pooled serum of ten healthy hospital workers)
serum 37 (individual 37) = tested on: serum 37 (individual 37)
serum SARS-yellow = tested on: serum SARS-yellow
serum 62 (individual 62) = tested on: serum 62 (individual 62)
[3] = tested on: serum 1a (individual 1, early serum)
[4] = tested on: control serum Blood-bank (commercial negative donor pooled serum)
serum 6 (individual 6) = tested on: serum 6 (individual 6)

Sequence	Binding of serum 1b to linear peptides of Orf14 of SARS-CoV TOR2 [1]	Binding of serum SARS-green to linear peptides of Orf14 of SARS-CoV TOR2 (serum SARS-green)	Binding of serum London to linear peptides of Orf14 of SARS-CoV TOR2 (serum London)	Binding of serum 2 to linear peptides of Orf14 of SARS-CoV TOR2 (serum 2 (individual 2))	Control serum LUMC linear peptides [2]	Control serum LUMC looped peptides [2]	Binding of serum 37 to linear peptides of Orf14 of SARS-CoV TOR2 (serum 37 (individual 37))	Binding of serum SARS-yellow to linear peptides of Orf14 of SARS-CoV TOR2 (serum SARS-yellow)	Binding of serum 62 to linear peptides of Orf14 of SARS-CoV TOR2 (serum 62 (individual 62))	Binding of serum 1a to linear peptides of Orf14 of SARS-CoV TOR2 [3]	Control Serum Blood-Bank Looped peptides [4]	Control serum Blood-bank linear peptides [4]	Binding of serum 6 to linear peptides of Orf14 of SARS-CoV TOR2 (serum 6 (individual 6))
TQREAEAAVKPLLAP	0.2	0.3	0.4	0.4	0.4	0.7	0.4	0.2	0.3	0.4	0.8	0.4	0.4
GEILLLEWLAEVVKL	0.4	0.3	0.6	0.4	0.5	0.5	0.6	0.3	0.5	0.5	0.5	0.6	0.5
AEAAVKPLLAPHHVV	0.5	0.8	0.8	1.3	1.0	0.6	0.8	0.8	0.8	0.7	0.6	0.8	0.6
VGEILLLEWLAEVVK	0.4	0.2	0.5	0.4	0.6	0.8	0.6	0.4	0.4	0.5	0.7	0.5	0.5
AVGEILLLEWLAEVV	0.5	0.3	0.6	0.5	0.8	0.8	0.7	0.5	0.6	0.6	0.8	0.5	0.5
LAPHHVVAVIQEIQL	0.4	0.1	0.4	0.4	0.6	0.5	0.5	0.4	0.4	0.5	0.5	0.3	0.4
EWLAEVVKLPSRYCC	0.6	0.6	1.0	0.7	0.6	0.6	1.0	0.3	0.7	0.8	0.7	0.7	0.6
LLLEWLAEVVKLPSR	0.4	0.3	0.6	0.4	0.5	0.5	0.7	0.2	0.4	0.5	0.7	0.7	0.6
AVIQEIQLLAAVGEI	2.4	2.5	1.7	1.7	1.4	0.5	1.7	2.3	2.1	2.1	0.5	1.8	2.0
LAAVGEILLLEWLAE	0.5	0.5	0.6	0.5	0.6	0.7	0.7	0.6	0.5	0.6	0.7	0.4	0.5
EIQLLAAVGEILLLE	0.5	0.3	0.4	0.5	0.8	0.7	0.6	0.5	0.4	0.6	0.7	0.4	0.4
VIQEIQLLAAVGEIL	0.4	0.5	0.4	0.4	0.6	0.9	0.6	0.3	0.4	0.5	0.5	0.4	0.3
APHHVVAVIQEIQLL	0.4	0.1	0.3	0.4	0.6	0.5	0.5	0.3	0.3	0.5	0.6	0.3	0.4
VAVIQEIQLLAAVGE	0.4	0.3	0.3	0.3	0.3	0.6	0.5	0.2	0.3	0.5	0.6	0.3	0.4
